Assay results taken from article PMC11165489, “Polyketide Trimming Shapes Dihydroxynaphthalene‐Melanin and Anthraquinone Pigments” (Advanced Science, 2024).

How the values were obtained:
Format in all cases: binding
Wdyg1p = target: T1, Wdyg1p (Exophiala dermatitidis, UniProt Q6BCB5); test: X-ray crystal structure
T1 construct: gene yg1; homodimer; N-domain residues 1-139, C-domain residues 144-393; active-site Ser256, His378; construct and host only in supplement

PlAntI = target: T2, PlAntI (Photorhabdus laumondii, UniProt Q7MZT8); test: X-ray crystal structure; mass spectrometry; conditions: covalent; Ser245 converted to dehydroalanine, inhibitor itself eliminated; 1.8 A
T2 construct: gene plu4186; crystallised enzyme; catalytic Ser245, His355, Asp326; construct and host only in supplement
T2 sequence (Q7MZT8 1-384): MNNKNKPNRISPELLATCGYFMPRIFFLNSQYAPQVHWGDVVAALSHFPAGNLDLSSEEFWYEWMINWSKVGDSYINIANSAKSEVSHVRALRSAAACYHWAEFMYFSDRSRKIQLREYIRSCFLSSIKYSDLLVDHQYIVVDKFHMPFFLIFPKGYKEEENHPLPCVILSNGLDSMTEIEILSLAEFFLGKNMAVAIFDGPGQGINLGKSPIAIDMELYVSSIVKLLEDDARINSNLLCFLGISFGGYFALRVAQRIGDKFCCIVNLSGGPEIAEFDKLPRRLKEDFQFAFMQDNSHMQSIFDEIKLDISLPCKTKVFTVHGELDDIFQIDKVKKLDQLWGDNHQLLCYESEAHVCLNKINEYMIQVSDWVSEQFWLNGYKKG

Afyg1p = target: T3, Afyg1p (Aspergillus fumigatus, UniProt Q4WZB3); test: X-ray crystal structure; conditions: reaction product in specificity pocket; 1.7 A
T3 construct: gene ayg1; homodimer; active-site Ser257, His380, Asp352; construct and host only in supplement
T3 sequence (Q4WZB3 2-406): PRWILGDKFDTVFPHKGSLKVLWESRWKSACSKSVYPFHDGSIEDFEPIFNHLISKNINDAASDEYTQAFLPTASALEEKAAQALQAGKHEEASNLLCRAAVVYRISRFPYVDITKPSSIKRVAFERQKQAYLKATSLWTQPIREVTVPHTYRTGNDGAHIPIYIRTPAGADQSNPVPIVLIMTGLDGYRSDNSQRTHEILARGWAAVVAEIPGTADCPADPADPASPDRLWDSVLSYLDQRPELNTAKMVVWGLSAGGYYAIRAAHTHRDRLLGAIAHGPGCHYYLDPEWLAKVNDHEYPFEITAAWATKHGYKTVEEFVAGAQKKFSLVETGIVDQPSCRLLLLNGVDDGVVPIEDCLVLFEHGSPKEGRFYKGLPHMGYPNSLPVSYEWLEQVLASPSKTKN

T1 sequence (Q6BCB5 entry or part of it): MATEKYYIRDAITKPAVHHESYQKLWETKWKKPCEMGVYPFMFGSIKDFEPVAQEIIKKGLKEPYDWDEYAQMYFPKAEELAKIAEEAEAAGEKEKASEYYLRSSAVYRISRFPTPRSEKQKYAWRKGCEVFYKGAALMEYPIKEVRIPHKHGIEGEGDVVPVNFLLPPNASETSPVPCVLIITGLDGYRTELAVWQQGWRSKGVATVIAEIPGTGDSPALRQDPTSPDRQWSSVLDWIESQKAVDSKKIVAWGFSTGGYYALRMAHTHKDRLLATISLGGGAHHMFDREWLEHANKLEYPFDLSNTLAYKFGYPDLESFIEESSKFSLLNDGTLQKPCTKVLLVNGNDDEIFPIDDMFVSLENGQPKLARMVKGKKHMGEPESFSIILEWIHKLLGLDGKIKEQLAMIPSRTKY

SMILES	X-ray crystal structure (Wdyg1p; covalent, Ser256 converted to dehydroalanine, inhibitor itself eliminated, 1.85 A)	X-ray crystal structure; mass spectrometry (PlAntI)	X-ray crystal structure (Afyg1p)	X-ray crystal structure (Wdyg1p; reaction product in specificity pocket, 1.95 A)
O=S(=O)(F)c1ccccc1 [PSF, phenyl‐SF]	treatment of Wdyg1p with PMSF (*) or PSF (^#) leads to the β‐elimination mediated conversion	treatment of PlAntI with PMSF (*) or PSF (^#) appears to also introduce a DHA	–	–
Oc1cc(O)c2c(O)cc(O)cc2c1 [THN, 1,3,6,8‐tetrahydroxynaphthalene]	–	–	the structure of Afyg1p in complex with its reaction product THN was analyzed	Wdyg1p crystal structure in complex with its product, THN (Wdyg1p:THN, PDB ID: 8QD9
